Publication PMC4932537, “Search for Potent and Selective Aurora A Inhibitors Based on General Ser/Thr Kinase Pharmacophore Model” (Pharmaceuticals, 2016)

Legend:
Aurora A = target: T1, Aurora A (Homo sapiens, UniProt O14965); experiment: Aurora A kinase inhibition (biochemical assay); settings: Table 2; Mean ± SEM, four repeats; read-out: Aurora A kinase inhibition IC50
T1 sequence (O14965 1-403): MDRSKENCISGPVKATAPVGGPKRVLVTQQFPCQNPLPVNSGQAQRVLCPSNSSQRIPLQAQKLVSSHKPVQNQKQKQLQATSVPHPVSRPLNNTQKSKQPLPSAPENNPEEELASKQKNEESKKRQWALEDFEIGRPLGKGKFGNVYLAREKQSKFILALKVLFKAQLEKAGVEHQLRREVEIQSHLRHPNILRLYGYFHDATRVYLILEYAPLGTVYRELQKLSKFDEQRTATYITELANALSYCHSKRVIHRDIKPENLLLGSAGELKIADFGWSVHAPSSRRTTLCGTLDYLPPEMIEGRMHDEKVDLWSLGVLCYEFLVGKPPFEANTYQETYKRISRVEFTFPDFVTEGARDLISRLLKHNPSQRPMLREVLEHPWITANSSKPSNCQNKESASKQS

[1] = test system: HL-60 (acute promyelocytic leukemia); experiment: MTT cytotoxicity, HL-60; format: cell-based; settings: Homo sapiens; HL-60, MTT, 72 h
Description: (§1) All cells lines were purchased in ATCC (Manassas, VA, USA), except for human primary fibroblasts (HFB), which were a generous gift from Dashinimaev E.B. (Koltsov Institute of Developmental Biology). H1299 (lung adenocarcinoma), H23 (lung adenocarcinoma), Colo320 (colon carcinoma), RS4;11 (acute lymphoblastic leukemia), PC3 (prostate adenocarcinoma) and HL-60 (acute promyelocytic leukemia) were cultivated in RPMI-1640 medium, with addition of 10% fetal calf serum (HyClone, South Logan, Utah, USA) and 2 mM L-Glutamine at 37 °C, 5% CО2. MDA-MB-453 (mammary adenocarcinoma), A549 (lung adenocarcinoma), HCT-116 (colon carcinoma), A431 (epidermoid carcinoma), MDA-MB-231 (mammary adenocarcinoma), BxPC3 (pancreatic adenocarcinoma), MEF (mouse embryonic fibroblasts, SV-40 immortalized), MEF Bax^−/−/Bak^−/− knockout cells (mouse embryonic fibroblasts, SV-40 immortalized, resistant to apoptosis) were cultivated in DMEM medium, with addition of 10% fetal calf serum (HyClone) and 2 mM L-Glutamine at 37 °C, 5% CО2.
(§2) Cells were seeded in 96-well plates (Corning, NY, USA): 5000 cells per well for adhesive cultures and cells, 25,000 cells per well for suspension cultures. Analyzed substances were added in 0.1–50 μM concentration range, with 2 × dilutions, and incubated for 72 h at 37 °C, 5% CО2. After incubation 20 uL of 5 mg/mL of water solution of 3-(4,5-dimethylthiazol-2-yl)-2,5-diphenyltetrazolium bromide (MTT, PANEKO, Moscow, Russia) was added to the cells and they were incubated for additional 4 h. After the incubation the medium was aspirated, cells were dissolved in 100 uL of DMSO and the optical density was measured at 570 nm with a МultiscanFC plate reader (ThermoScientific, Cambridge, MA, USA). The percentage of surviving cells at each dose was calculated by dividing the optical density of treated cells by the optical density of untreated control (which was taken as 100%). The IC50s were calculated in GraphPad Prism 5.0.

[2] = test system: H23 (lung adenocarcinoma); experiment: MTT cytotoxicity, H23; format: cell-based; settings: 72 h
Description: as §1, §2

[3] = test system: H1299 (lung adenocarcinoma); experiment: MTT cytotoxicity, H1299; format: cell-based; settings: Homo sapiens, NCI-H1299, 72 h
Description: as §1, §2

[4] = test system: PC3 (prostate adenocarcinoma); experiment: MTT cytotoxicity, PC3; format: cell-based; settings: 72 h
Description: as §1, §2

[5] = test system: MDA-MB-453 (mammary adenocarcinoma); experiment: MTT cytotoxicity, MDA-MB-453; format: cell-based; settings: Homo sapiens; MDA-MB-453, MTT, 72 h
Description: as §1, §2

[6] = test system: RS4;11 (acute lymphoblastic leukemia); experiment: MTT cytotoxicity, RS4;11; format: cell-based; settings: Homo sapiens; RS4;11, MTT, 72 h
Description: as §1, §2

[7] = test system: A-549 (lung adenocarcinoma); experiment: MTT cytotoxicity, A-549; format: cell-based; settings: Homo sapiens, A549; A-549, MTT, 72 h
Description: as §1, §2

[8] = test system: HCT-116 (colon carcinoma); experiment: MTT cytotoxicity, HCT-116; format: cell-based; settings: Homo sapiens; HCT-116, MTT, 72 h
Description: as §1, §2

MTT cytotoxicity, HFB = format: cell-based; settings: human, human primary fibroblasts (HFB)
Description: as §1, §2

[9] = test system: A431 (epidermoid carcinoma); experiment: MTT cytotoxicity, A431; format: cell-based; settings: Homo sapiens, A-431, 72 h
Description: as §1, §2

[10] = test system: Colo-320 (colon carcinoma); experiment: MTT cytotoxicity, Colo-320; format: cell-based; settings: Homo sapiens; Colo-320, MTT, 72 h
Description: as §1, §2

[11] = test system: MDA-MB231 (mammary adenocarcinoma); experiment: MTT cytotoxicity, MDA-MB231; format: cell-based; settings: Homo sapiens, MDA-MB-231, 72 h
Description: as §1, §2

[12] = test system: BxPC3 (pancreatic adenocarcinoma); experiment: MTT cytotoxicity, BxPC3; format: cell-based; settings: Homo sapiens, BXPC-3, 72 h
Description: as §1, §2

[13] = MTT cytotoxicity, MEFs Dko; format: cell-based; settings: mouse, MEFs Dko (bax−/−bak−/−)
Description: as §1, §2

MTT cytotoxicity, MEF WT = format: cell-based; settings: mouse
Description: as §1, §2

Aurora B = Aurora B (Homo sapiens, UniProt Q96GD4); experiment: Aurora B kinase inhibition; format: biochemical; settings: Table 3; Mean ± SEM
Chain of Aurora B (Q96GD4 whole entry): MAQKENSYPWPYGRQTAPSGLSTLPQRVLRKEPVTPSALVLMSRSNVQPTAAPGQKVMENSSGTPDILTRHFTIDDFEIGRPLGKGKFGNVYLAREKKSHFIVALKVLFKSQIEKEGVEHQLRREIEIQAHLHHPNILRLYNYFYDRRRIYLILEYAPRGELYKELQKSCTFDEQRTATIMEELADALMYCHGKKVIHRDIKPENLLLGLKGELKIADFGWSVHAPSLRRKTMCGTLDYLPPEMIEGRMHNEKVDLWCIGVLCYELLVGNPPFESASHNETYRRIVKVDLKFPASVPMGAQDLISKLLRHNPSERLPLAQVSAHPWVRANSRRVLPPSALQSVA

c-Kit = c-Kit (Homo sapiens, UniProt P10721); experiment: c-Kit kinase selectivity; format: biochemical; settings: Mean ± SEM
Chain of c-Kit (P10721 26-976): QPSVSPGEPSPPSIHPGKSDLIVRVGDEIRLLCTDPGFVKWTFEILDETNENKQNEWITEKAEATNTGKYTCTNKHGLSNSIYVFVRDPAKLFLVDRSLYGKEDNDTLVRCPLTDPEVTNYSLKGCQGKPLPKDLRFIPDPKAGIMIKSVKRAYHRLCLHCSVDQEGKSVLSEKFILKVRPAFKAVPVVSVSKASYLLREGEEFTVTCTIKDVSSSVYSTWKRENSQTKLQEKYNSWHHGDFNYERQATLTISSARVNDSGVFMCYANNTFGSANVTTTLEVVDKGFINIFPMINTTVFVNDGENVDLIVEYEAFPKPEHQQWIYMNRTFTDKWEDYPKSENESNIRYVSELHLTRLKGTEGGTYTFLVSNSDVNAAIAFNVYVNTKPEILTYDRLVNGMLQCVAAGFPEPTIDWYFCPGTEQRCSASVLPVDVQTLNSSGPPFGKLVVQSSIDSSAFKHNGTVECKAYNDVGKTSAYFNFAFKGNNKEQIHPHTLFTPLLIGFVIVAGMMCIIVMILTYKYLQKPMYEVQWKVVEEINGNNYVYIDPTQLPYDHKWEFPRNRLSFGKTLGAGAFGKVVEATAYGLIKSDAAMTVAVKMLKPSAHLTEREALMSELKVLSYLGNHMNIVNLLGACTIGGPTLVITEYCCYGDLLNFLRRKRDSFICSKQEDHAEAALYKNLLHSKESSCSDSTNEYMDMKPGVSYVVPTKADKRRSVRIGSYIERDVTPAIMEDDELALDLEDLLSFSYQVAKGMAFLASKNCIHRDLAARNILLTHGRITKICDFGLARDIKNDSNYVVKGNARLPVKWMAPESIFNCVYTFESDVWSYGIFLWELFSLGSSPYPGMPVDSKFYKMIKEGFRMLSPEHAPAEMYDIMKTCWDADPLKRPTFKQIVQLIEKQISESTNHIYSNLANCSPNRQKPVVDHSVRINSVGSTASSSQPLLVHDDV

CSK = CSK (Homo sapiens, UniProt P41240); experiment: CSK kinase selectivity; format: biochemical; settings: Mean ± SEM
EPHA2 = EPHA2 (Homo sapiens, UniProt P29317); experiment: EPHA2 kinase selectivity; format: biochemical; settings: Mean ± SEM
JNK3 = JNK3 (Homo sapiens, UniProt P53779); experiment: JNK3 kinase selectivity; format: biochemical; settings: Mean ± SEM
Chain of JNK3 (P53779 whole entry, species assumed): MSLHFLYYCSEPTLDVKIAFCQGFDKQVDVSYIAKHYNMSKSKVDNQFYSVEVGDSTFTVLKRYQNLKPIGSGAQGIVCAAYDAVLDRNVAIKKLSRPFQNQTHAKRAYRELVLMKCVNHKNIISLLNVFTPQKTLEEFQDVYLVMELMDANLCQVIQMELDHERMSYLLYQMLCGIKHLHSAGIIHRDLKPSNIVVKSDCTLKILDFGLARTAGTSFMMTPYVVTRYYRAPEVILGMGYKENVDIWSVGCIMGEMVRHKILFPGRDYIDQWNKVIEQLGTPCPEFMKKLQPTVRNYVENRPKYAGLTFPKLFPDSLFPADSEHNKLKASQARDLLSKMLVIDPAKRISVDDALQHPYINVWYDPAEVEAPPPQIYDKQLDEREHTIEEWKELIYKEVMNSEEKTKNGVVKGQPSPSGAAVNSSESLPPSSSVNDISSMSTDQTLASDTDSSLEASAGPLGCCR

LYN = LYN (Homo sapiens, UniProt P07948); experiment: LYN kinase selectivity; format: biochemical; settings: Mean ± SEM
RON = RON (Homo sapiens, UniProt Q04912); experiment: RON kinase selectivity; format: biochemical; settings: Mean ± SEM
Chain of RON (Q04912 25-1400, species assumed): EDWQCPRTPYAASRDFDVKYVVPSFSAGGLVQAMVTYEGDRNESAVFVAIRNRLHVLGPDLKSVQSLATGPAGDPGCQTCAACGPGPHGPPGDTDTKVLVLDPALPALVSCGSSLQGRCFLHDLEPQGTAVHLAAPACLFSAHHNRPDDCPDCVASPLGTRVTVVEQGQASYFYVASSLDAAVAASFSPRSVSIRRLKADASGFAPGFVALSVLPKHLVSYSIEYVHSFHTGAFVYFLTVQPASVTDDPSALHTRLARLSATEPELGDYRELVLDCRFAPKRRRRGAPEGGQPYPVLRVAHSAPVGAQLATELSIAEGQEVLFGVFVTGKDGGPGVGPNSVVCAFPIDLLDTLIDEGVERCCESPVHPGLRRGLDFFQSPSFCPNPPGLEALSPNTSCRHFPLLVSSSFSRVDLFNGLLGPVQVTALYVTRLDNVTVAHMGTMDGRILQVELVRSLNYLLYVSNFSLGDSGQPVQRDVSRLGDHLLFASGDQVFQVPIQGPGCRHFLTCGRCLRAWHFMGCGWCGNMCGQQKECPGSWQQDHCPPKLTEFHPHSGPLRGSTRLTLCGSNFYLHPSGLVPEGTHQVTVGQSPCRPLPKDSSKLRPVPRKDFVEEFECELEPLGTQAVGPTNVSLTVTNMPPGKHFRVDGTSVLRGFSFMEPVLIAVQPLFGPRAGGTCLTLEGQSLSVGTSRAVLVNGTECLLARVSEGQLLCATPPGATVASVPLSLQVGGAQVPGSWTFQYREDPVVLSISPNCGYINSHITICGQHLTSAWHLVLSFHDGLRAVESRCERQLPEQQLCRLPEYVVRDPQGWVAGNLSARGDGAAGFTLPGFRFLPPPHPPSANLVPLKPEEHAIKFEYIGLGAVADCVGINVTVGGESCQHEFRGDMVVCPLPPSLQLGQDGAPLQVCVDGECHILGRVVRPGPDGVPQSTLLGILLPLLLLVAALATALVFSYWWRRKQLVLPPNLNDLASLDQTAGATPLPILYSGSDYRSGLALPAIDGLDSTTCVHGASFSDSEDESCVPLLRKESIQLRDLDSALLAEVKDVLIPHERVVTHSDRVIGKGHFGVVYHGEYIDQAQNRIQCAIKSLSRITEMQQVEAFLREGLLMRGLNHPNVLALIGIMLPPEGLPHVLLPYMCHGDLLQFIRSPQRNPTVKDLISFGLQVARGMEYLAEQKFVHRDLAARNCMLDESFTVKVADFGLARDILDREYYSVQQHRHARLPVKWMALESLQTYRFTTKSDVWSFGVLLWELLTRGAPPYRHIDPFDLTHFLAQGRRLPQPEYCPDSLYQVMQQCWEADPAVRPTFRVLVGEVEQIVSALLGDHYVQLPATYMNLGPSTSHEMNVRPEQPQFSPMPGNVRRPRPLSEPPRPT

[14] = Solubility (nephelometry); format: physicochemical; settings: kinetic from dmso stock
GSK-3 = GSK-3 kinase selectivity; format: biochemical; settings: Mean ± SEM
CYP2C19 = CYP2C19 (Homo sapiens, UniProt P33261); experiment: CYP2C19 inhibition; format: in vitro ADME; settings: Mean ± SEM
Chain of CYP2C19 (P33261 whole entry): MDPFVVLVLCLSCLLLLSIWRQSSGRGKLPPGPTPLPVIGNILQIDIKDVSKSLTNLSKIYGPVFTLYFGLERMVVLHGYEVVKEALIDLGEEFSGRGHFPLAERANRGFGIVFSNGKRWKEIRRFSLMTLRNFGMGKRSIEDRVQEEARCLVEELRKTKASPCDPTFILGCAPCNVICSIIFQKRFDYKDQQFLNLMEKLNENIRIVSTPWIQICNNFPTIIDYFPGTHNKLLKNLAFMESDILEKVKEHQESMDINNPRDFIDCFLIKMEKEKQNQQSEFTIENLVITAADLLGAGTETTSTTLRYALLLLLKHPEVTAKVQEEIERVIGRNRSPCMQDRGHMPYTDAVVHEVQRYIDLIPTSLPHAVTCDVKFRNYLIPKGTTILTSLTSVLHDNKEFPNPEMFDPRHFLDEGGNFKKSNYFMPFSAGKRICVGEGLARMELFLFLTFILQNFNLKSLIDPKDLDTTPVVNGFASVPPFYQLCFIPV

CYP 2C9 = CYP 2C9 (Homo sapiens, UniProt P11712); experiment: CYP 2C9 inhibition; format: in vitro ADME; settings: Mean ± SEM
Chain of CYP 2C9 (P11712 whole entry): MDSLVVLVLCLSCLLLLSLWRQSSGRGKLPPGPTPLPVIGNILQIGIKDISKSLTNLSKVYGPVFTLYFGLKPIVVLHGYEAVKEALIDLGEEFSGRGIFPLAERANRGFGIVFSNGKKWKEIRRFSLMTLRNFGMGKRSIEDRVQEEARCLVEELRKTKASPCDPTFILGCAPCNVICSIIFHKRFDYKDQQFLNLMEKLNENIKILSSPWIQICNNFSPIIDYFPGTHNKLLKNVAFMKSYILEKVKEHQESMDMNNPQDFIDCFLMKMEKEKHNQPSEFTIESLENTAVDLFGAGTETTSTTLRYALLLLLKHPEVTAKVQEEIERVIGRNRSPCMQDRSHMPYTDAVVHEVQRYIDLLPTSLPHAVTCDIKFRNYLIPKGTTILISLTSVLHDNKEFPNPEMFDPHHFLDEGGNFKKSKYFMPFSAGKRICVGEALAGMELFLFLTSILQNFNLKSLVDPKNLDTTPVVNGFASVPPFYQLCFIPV

CYP3A4 = CYP3A4 (Homo sapiens, UniProt P08684); experiment: CYP3A4 inhibition; format: in vitro ADME; settings: Mean ± SEM
Chain of CYP3A4 (P08684 whole entry): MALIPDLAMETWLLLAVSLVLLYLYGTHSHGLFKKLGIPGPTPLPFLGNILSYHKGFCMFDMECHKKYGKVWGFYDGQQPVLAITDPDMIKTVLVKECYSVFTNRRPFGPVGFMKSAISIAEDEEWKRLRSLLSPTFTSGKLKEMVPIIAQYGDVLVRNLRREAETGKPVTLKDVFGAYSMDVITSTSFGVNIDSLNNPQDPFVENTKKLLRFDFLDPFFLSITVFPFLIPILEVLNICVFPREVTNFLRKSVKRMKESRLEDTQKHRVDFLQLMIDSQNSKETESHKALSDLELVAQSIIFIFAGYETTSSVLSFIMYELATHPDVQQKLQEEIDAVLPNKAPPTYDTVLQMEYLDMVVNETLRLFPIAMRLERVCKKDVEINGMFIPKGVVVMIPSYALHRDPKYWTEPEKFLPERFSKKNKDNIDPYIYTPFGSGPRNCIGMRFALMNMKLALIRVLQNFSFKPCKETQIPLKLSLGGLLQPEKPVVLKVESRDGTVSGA

Compound | IC50 (Aurora A) [µM] | melting point [°C] | IC50 [1] [µM] | IC50 [2] [µM] | IC50 [3] [µM] | IC50 [4] [µM] | IC50 [5] [µM] | IC50 [6] [µM] | IC50 [7] [µM] | IC50 [8] [µM] | IC50 at 72 h (MTT cytotoxicity, HFB) [µM] | IC50 [9] [µM] | IC50 [10] [µM] | IC50 [11] [µM] | IC50 [12] [µM] | IC50 at 48 h [13] [µM] | IC50 at 48 h (MTT cytotoxicity, MEF WT) [µM] | IC50 (Aurora B) [µM] | IC50 (JNK3) [µM] | solubility [14] [µg/mL] | further results
Cc1cc(Nc2ccn[nH]2)nc(CC2CCN(C(=O)c3cccc(Cl)c3F)CC2)n1 [Compound 14, (3-Chloro-2-fluoro-phenyl)-{4-[4-methyl-6-(2H-pyrazol-3-ylamino)-pyrimidin-2-ylmethyl]-piperidin-1-yl}-methanone] | 0.0053 ± 0.00046 | 125 to 128 |  |  |  |  |  |  |  |  |  |  |  |  |  |  |  | 18.3 | 1.63 ± 0.167 | > 100 | IC50 (c-Kit): 21 µM; IC50 (GSK-3): 0.109 ± 0.0121 µM; IC50 (CYP2C19): 9.6 ± 0.96 µM; IC50 (CYP 2C9): 3.9 ± 0.401 µM; IC50 (CYP3A4): 15.1 ± 0.151 µM
Cc1cc(Nc2cccc(CC3CCN(C(=O)c4cccc(Cl)c4F)CC3)n2)[nH]n1 [Compound 15, (3-Chloro-2-fluoro-phenyl)-{4-[6-(5-methyl-2H-pyrazol-3-ylamino)-pyridin-2-ylmethyl]-piperidin-1-yl}-Methanone] | 0.0175 ± 0.0021 | 120 to 122 | 38.8 ± 3.2 | > 50 | 3.7 ± 0.3 | 9.7 ± 1 | 5.7 ± 0.6 | 0.1 ± 0.02 | 5.7 ± 0.6 | 2.8 ± 0.3 | 3 ± 0.2 | 6.8 ± 0.7 | 1 ± 0.12 | > 50 | 7.2 ± 0.6 | 3 ± 0.2 | 0.9 ± 0.08 |  |  |  | 
Cc1cc(Nc2ccnc(CC3CCN(C(=O)c4cccc(Cl)c4F)CC3)n2)[nH]n1 [Compound 16, (3-Chloro-2-fluoro-phenyl)-{4-[4-(5-methyl-2H-pyrazol-3-ylamino)-pyrimidin-2-ylmethyl]-piperidin-1-yl}-methanone] | 0.0035 ± 0.00029 |  | > 50 | > 50 | 1.5 ± 0.12 | 8.3 ± 0.8 | 12 ± 1.2 | 0.3 ± 0.02 | 8.8 ± 0.9 | 4.2 ± 0.4 | 3.3 ± 0.3 | 9 ± 1 | 1.2 ± 0.03 | > 50 | 8.1 ± 0.8 | 4.5 ± 0.5 | 0.9 ± 0.1 | 4.182 ± 0.0401 | 0.572 ± 0.0561 | > 100 | IC50 (GSK-3): 0.293 ± 0.0312 µM; IC50 (CYP2C19): 0.966 ± 0.0941 µM; IC50 (CYP 2C9): 0.327 ± 0.033 µM; IC50 (CYP3A4): 0.596 ± 0.0601 µM

Further lines, with some results ahead:

IC50 (Aurora A) [µM] | melting point [°C] | Compound | IC50 [1] [µM] | IC50 [2] [µM] | IC50 [3] [µM] | IC50 [4] [µM] | IC50 [5] [µM] | IC50 [6] [µM] | IC50 [7] [µM] | IC50 [8] [µM] | IC50 at 72 h (MTT cytotoxicity, HFB) [µM] | IC50 [9] [µM] | IC50 [10] [µM] | IC50 [11] [µM] | IC50 [12] [µM] | IC50 at 48 h [13] [µM] | IC50 at 48 h (MTT cytotoxicity, MEF WT) [µM] | IC50 (Aurora B) [µM] | IC50 (JNK3) [µM] | solubility [14] [µg/mL] | further results
0.012 ± 0.0011 | 211 to 213 | Cc1cc(Nc2ncc(C)s2)nc(CC2CCN(C(=O)c3cccc(Cl)c3F)CC2)n1 [Compound 11, (3-Chloro-2-fluoro-phenyl)-{4-[4-methyl-6-(5-methyl-thiazol-2-ylamino)-pyrimidin-2-ylmethyl]-piperidin-1-yl}-methanone] | 5.4 ± 0.3 | 3.9 ± 0.15 | 1.7 ± 0.2 | 3.2 ± 0.2 | 10 ± 1.2 | 0.5 ± 0.04 | 5.6 ± 0.5 | 3 ± 0.4 | 3.6 ± 0.4 | 4.6 ± 0.5 | 0.8 ± 0.09 | 7.3 ± 0.8 | 2 ± 0.021 | 3.1 ± 0.32 | 1 ± 0.2 |  |  |  | 
0.0351 ± 0.00036 | 207 to 209 | Cc1cc(Nc2nccs2)nc(CC2CCN(C(=O)c3cccc(Cl)c3F)CC2)n1 [Compound 12, (3-Chloro-2-fluoro-phenyl)-{4-[4-methyl-6-(thiazol-2-ylamino)-pyrimidin-2-ylmethyl]-piperidin-1-yl}-methanone] | 39.8 ± 3.4 | 6.8 ± 0.5 | 5 ± 0.4 | 6 ± 0.7 | 16.3 ± 1.7 | 1.5 ± 0.2 | 10 ± 1.2 | 6.5 ± 0.7 | 3.8 ± 0.4 | 10.2 ± 1.2 | 2 ± 0.15 | 28.2 ± 0.3 | 6 ± 0.59 | 11.8 ± 1.2 | 5.8 ± 0.5 |  |  |  | 
0.0041 ± 0.00035 | 221 to 223 | Cc1cc(Nc2ncc(Cl)s2)nc(CC2CCN(C(=O)c3cccc(Cl)c3F)CC2)n1 [Compound 13, (3-Chloro-2-fluoro-phenyl)-{4-[4-(5-chloro-thiazol-2-ylamino)-6-methyl-pyrimidin-2-ylmethyl]-piperidin-1-yl}-methanone] | 20.9 ± 2.1 | 1.2 ± 0.09 | 1.1 ± 0.1 | 3.9 ± 0.4 | 8 ± 0.79 | 1.1 ± 0.11 | 5.1 ± 0.4 | 4.4 ± 0.5 | 2.8 ± 0.3 | 6.1 ± 0.7 | 1 ± 0.11 | 10.5 ± 1.1 | 2.4 ± 0.14 | 3.6 ± 0.3 | 2.5 ± 0.3 | 0.232 ± 0.0241 | 0.0852 ± 0.0091 | < 10 | IC50 (c-Kit): 17 µM; IC50 (CSK): 9.5 ± 0.101 µM; IC50 (EPHA2): 9 ± 0.985 µM; IC50 (LYN): 3.27 ± 0.324 µM; IC50 (RON): 0.97 ± 0.101 µM
